Measured values from US20260355196A1, “INHIBITORS AND DEGRADERS OF PIP4K PROTEIN” (Larkspur Biosciences, Inc., priority 2023, published 2026).

molecular target: T1, PIP4K2C (Homo sapiens, UniProt Q8TBX8); test: HiBiT PIP4K2C degradation assay in MOLT-4 cells (endogenous PIP4K2C C-terminally tagged with HiBiT); format: cell-based; parameters: untagged in primary human PBMCs and monocyte-derived dendritic cells; conditions: 6 hours of incubation time, rather than 24 hours; MOLT-4, top concentration 10 micromolar; read-out: HiBIT-degradation MOLT4 PIP4k2C DC50 (6 hours, marked *)
T1 sequence (Q8TBX8 1-421): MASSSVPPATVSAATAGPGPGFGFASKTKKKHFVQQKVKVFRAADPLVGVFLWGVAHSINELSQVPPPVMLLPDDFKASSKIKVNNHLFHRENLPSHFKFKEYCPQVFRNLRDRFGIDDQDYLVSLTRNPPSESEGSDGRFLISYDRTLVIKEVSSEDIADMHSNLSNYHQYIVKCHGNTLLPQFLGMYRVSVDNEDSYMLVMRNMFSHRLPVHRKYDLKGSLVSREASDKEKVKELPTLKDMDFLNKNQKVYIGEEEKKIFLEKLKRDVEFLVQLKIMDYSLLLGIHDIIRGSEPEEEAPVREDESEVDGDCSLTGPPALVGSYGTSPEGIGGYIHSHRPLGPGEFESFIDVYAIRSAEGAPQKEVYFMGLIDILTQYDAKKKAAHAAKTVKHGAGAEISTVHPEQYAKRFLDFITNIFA
Outline: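 DC50 derived by Hill fit of luminescence from Nano-Glo HiBiT lytic detection. Cells were HiBiT knock-in MOLT-4 (C-terminal tag on endogenous PIP4K2C), exposed 6 h or 24 h at 37 C to compound, top concentration 10 micromolar, 3-fold steps, 10 points, duplicates.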

Row | Compound | DC50
1 | Cc1ccc(=O)n(-c2cccc(-c3nc(N[C@H]4CC[C@H](NC(=O)[C@H]5CC[C@H](N6CCC(c7ccc(NC8CCC(=O)NC8=O)cc7F)CC6)CC5)CC4)ncc3F)c2)c1 (stereo partly drawn) [Compound 574, trans-(1r,4R)-4-(4-(4-((2,6-dioxopiperidin-3-yl)amino)-2-fluorophenyl)piperidin-1-yl)-N-((1r,4R)-4-((5-fluoro-4-(3-(5-methyl-2-oxopyridin-1 (2H)-yl)phenyl)pyrimidin-2-yl)amino)cyclohexyl)cyclohexane-1-carboxamide] | < 0.5 µM
2 | O=C1CCC(Nc2ccc(N3CCC(CN4CCC(CC(=O)N[C@H]5CC[C@H](Nc6ncc(F)c(-c7cccc(-n8ccccc8=O)c7)n6)CC5)CC4)CC3)c(F)c2)C(=O)N1 (stereo partly drawn) [Compound 704, trans-2-(1-((1-(4-((2,6-dioxopiperidin-3-yl)amino)-2-fluorophenyl)piperidin-4-yl)methyl)piperidin-4-yl)-N-(4-((5-fluoro-4-(3-(2-oxopyridin-1 (2H)-yl)phenyl)pyrimidin-2-yl)amino)cyclohexyl)acetamide] | < 0.5 µM

Now from value to compound:

Row | DC50 | Compound
3 | < 0.5 µM | O=C1CCC(Nc2ccc(C3CCN(C(=O)C4CCN(C(=O)[C@H]5CC[C@H](Nc6ncc(F)c(-c7cccc(-n8ccccc8=O)c7)n6)CC5)CC4)CC3)c(F)c2)C(=O)N1 (stereo partly drawn) [Compound 669, trans-3-((3-fluoro-4-(1-(1-(4-((5-fluoro-4-(3-(2-oxopyridin-1 (2H)-yl)phenyl)pyrimidin-2-yl)amino)cyclohexane-1-carbonyl)piperidine-4-carbonyl)piperidin-4-yl)phenyl)amino)piperidine-2,6-dione]
4 | < 0.5 µM | O=C1CCC(Nc2ccc(C3CCN(CC4CCN(C(=O)[C@H]5CC[C@H](Nc6ncc(F)c(-c7cccc(N8CCCOC8=O)c7)n6)CC5)CC4)CC3)c(F)c2)C(=O)N1 (stereo partly drawn) [Compound 427, trans-3-((3-fluoro-4-(1-((1-(4-((5-fluoro-4-(3-(2-oxo-1,3-oxazinan-3-yl)phenyl)pyrimidin-2-yl)amino)cyclohexane-1-carbonyl)piperidin-4-yl)methyl)piperidin-4-yl)phenyl)amino)piperidine-2,6-dione]
5 | < 0.5 µM | O=C1CCC(Nc2ccc(C3CCN(C[C@H]4CC[C@H](C(=O)N5CCC(Nc6ncc(F)c(-c7cccc(-c8ccc[nH]c8=O)c7)n6)CC5)CC4)CC3)c(F)c2)C(=O)N1 (stereo partly drawn) [Compound 654, 3-((3-fluoro-4-(1-(((trans)-4-(4-((5-fluoro-4-(3-(2-oxo-1,2-dihydropyridin-3-yl)phenyl)pyrimidin-2-yl)amino)piperidine-1-carbonyl)cyclohexyl)methyl)piperidin-4-yl)phenyl)amino)piperidine-2,6-dione]

same assay, conditions: 24 hours incubation, MOLT-4, top concentration 10 micromolar; read-out: HiBIT-degradation MOLT4 PIP4k2C 24 hours DC50

Row | DC50 | Compound
6 | < 0.5 µM | O=C1CCC(c2ccc(N3CCC(O)(CC(=O)N4CCC(C(=O)N5CCC(Nc6ncc(Cl)c(-c7cccc(-c8ccc(F)cc8)c7)n6)CC5)CC4)CC3)c(F)c2)C(=O)N1 (stereo not shown) [Compound 282, 3-(4-(4-(2-(4-(4-((5-chloro-4-(4′-fluoro-[1,1′-biphenyl]-3-yl)pyrimidin-2-yl)amino)piperidine-1-carbonyl)piperidin-1-yl)-2-oxoethyl)-4-hydroxypiperidin-1-yl)-3-fluorophenyl)piperidine-2,6-dione]
7 | < 0.5 µM | O=C1CCC(Nc2ccc(N3CCC(CN4CCC(NC(=O)[C@H]5CC[C@H](Nc6ncc(F)c(-c7cccc(-n8ccccc8=O)c7)n6)CC5)CC4)CC3)c(F)c2)C(=O)N1 (relative stereo) [Compound 375, trans-N-(1-((1-(4-((2,6-dioxopiperidin-3-yl)amino)-2-fluorophenyl)piperidin-4-yl)methyl)piperidin-4-yl)-4-((5-fluoro-4-(3-(2-oxopyridin-1(2H)-yl)phenyl)pyrimidin-2-yl)amino)cyclohexane-1-carboxamide]
